Experimental data taken from the supplement of paper PMC10307832.

Key:
Test in all cases: relative viability (nuclei count vs DMSO), 5 days (fraction); higher = more cells survive
[1] = compound: C#Cc1cccc(Nc2ncnc3cc(OC)c(OCCCCCCC(=O)NO)cc23)c1 [CUDC-101] + N=C(N)NC(=N)NCCc1ccccc1 [Phenformin] (partner 250 µM)
Procedure, shortened: (§1)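 A single step with final 0.05% Triton X-100, 1% formaldehyde and 1 ug/ml Hoechst fixed the cells and stained nuclei 5 days after treatment. Lung cancer cell lines in 1536-well plates had been treated by pin tool the day after seeding with one drug alone or a fixed anchor-drug dose plus five library-drug doses (not always all listed) in √10 steps, and nuclei were counted on 4× images. Relative viability is the ratio of nuclei in treated wells to nuclei in vehicle wells, taken as the median of duplicate plates.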

[2] = compound: COc1cc2/c(=N/c3ccc(Br)cc3F)nc[nH]c2cc1OCC1CCN(C)CC1 [Vandetanib] + CC(=O)c1c(C)c2cnc(Nc3ccc(N4CCNCC4)cn3)nc2n(C2CCCC2)c1=O [Palbociclib] (partner 0.5 µM)
Procedure, shortened: as §1

[3] = compound: COc1cc2/c(=N/c3ccc(Br)cc3F)nc[nH]c2cc1OCC1CCN(C)CC1 [Vandetanib] + Cc1nc(Nc2ncc(C(=O)Nc3c(C)cccc3Cl)s2)cc(N2CCN(CCO)CC2)n1 [Dasatinib] (partner 0.075 µM)
Procedure, shortened: as §1

[4] = compound: C#Cc1cccc(Nc2ncnc3cc(OC)c(OCCCCCCC(=O)NO)cc23)c1 [CUDC-101] + CCNC(=O)c1noc(-c2cc(C(C)C)c(O)cc2O)c1-c1ccc(CN2CCOCC2)cc1 [Luminespib] (partner 0.01 µM)
Procedure, shortened: as §1

Cell Line	relative viability ([1]; first compound 0.01 µM)	relative viability ([1]; first compound 0.03162 µM)	relative viability ([1]; first compound 0.1 µM)	relative viability ([1]; first compound 0.3162 µM)	relative viability ([1]; first compound 1 µM)	relative viability ([2]; first compound 0.02 µM)	relative viability ([2]; first compound 0.06325 µM)	relative viability ([2]; first compound 0.2 µM)	relative viability ([2]; first compound 0.6325 µM)	relative viability ([2]; first compound 2 µM)	relative viability ([3]; first compound 0.02 µM)	relative viability ([3]; first compound 0.06325 µM)	relative viability ([3]; first compound 0.2 µM)	relative viability ([3]; first compound 0.6325 µM)	relative viability ([3]; first compound 2 µM)	relative viability ([4]; first compound 0.01 µM)	relative viability ([4]; first compound 0.03162 µM)	relative viability ([4]; first compound 0.1 µM)	relative viability ([4]; first compound 0.3162 µM)	relative viability ([4]; first compound 1 µM)
HCC-366	0.604	0.555	0.704	0.667	0.64	0.423	0.41	0.453	0.394	0.351	0.6	0.625	0.663	0.561	0.637					
HCC-827	0.376	0.18	0.161	0.143	0.14	0.479	0.468	0.227	0.263	0.166	0.489	0.276	0.284	0.152	0.13	0.531	0.241	0.278	0.217	0.197
HOP-62	0.628	0.656	0.758	0.683	0.545	0.421	0.437	0.431	0.509	0.412	0.611	0.569	0.671	0.573	0.684	0.931	0.875	0.902	0.859	0.794
LC-2-ad	0.65	0.651	0.689	0.551	0.287	0.466	0.489	0.526	0.441	0.422	0.574	0.471	0.49	0.317	0.211	1.04	0.953	1.15	0.974	0.707
LCLC-97TM1	0.426	0.381	0.436	0.471	0.362	0.188	0.21	0.224	0.209	0.254	0.801	0.848	0.807	0.865	0.786	0.849	0.857	0.771	0.765	0.502
LCLC-103H	0.384	0.367	0.36	0.357	0.31	0.439	0.521	0.388	0.478	0.406	0.511	0.422	0.43	0.424	0.47	0.975	0.931	0.943	0.92	0.754
LK-2	0.369	0.727	0.411	0.479	0.15	0.57	0.811	0.859	0.58	0.66	0.261	0.24	0.295	0.239	0.221	0.248	0.196	0.19	0.179	0.178
LOU-NH91	0.736	0.56	0.534	0.587	0.393	0.564	0.524	0.535	0.543	0.416	0.53	0.433	0.506	0.442	0.317	0.395	0.216	0.334	0.385	0.316
LU99A	0.825	0.682	0.676	0.947	0.572	0.378	0.428	0.337	0.359	0.376	0.427	0.521	0.387	0.416	0.636	0.224	0.247	0.245	0.261	0.248
LXF-289	0.536	0.523	0.55	0.493	0.408	0.588	0.565	0.518	0.575	0.558	0.24	0.218	0.107	0.257	0.253	0.651	0.632	0.741	0.752	0.449
NCI-H23	0.793	0.743	0.81	0.851	0.789	0.416	0.427	0.489	0.54	0.495	0.882	0.806	0.821	0.797	0.728	0.197	0.204	0.209	0.207	0.197
NCI-H322M	0.786	0.69	0.64	0.586	0.438	0.484	0.457	0.494	0.446	0.414	0.23	0.25	0.24	0.223	0.252	0.84	0.697	0.899	1.01	0.697
NCI-H358	0.378	0.346	0.32	0.312	0.193	0.146	0.162	0.119	0.133	0.109	0.131	0.201	0.161	0.136	0.124	0.263	0.407	0.225	0.659	0.448
NCI-H441	0.88	0.486	0.764	0.917	0.776	0.221	0.253	0.21	0.197	0.171	0.552	0.54	0.617	0.598	0.629	0.359	0.381	0.304	0.414	0.371
NCI-H596	0.886	0.729	0.751	0.772	0.698						0.498	0.659	0.646	0.585	0.596	1.12	0.936	0.923	0.927	0.972
NCI-H1563	0.664	0.643	0.745	0.613	0.659						0.44	0.443	0.462	0.472	0.454	0.447	0.526	0.506	0.531	0.495
NCI-H1623	0.565	0.597	0.539	0.631	0.457						0.489	0.576	0.502	0.507	0.404	0.469	0.46	0.445	0.632	0.392
NCI-H1648						0.27	0.245	0.2	0.284	0.24										
